The values below come from patent publication US6872805B2 (Bristol-Myers Squibb Company, priority 2000, dated 2005).

For data set [1], the target named is NS3/4A BMS strain (Hepatitis C virus genotype 1a, UniProt P27958, C1454S/C1711G). Description: Recombinant HCV NS3/4A protease complex FRET peptide assay, BMS strain. Particulars: enzyme assay. The data set is classed as biochemical, HCV genotype 1a. The source says:
The purpose of this in vitro assay was to measure the inhibition of HCV NS3 protease complexes, derived from the BMS, H77C or J416S strains, as described below, by compounds of the present invention. This assay provides an indication of how effective compounds of the present invention would be in inhibiting HCV […] proteolytic activity.
Serum from an HCV-infected patient was obtained from Dr. T. Wright, San Francisco Hospital. An engineered full-length cDNA template of the HCV genome (BMS strain) was constructed from DNA fragments obtained by reverse transcription-PCR (RT-PCR) of serum RNA and using primers selected on the basis of homology between other genotype 1a strains. From the determination of the entire genome sequence, a genotype 1a was assigned to the HCV isolate according to the classification of Simmonds et al. (See P Simmonds, K A Rose, S Graham, S W Chan, F McOmish, B C Dow, E A Follett, P L Yap and H Marsden, J. Clin. Microbiol., 31(6), 1493-1503 (1993)). […] The infectious clones, H77C (1a genotype) and J4L6S (1b genotype) were obtained from R. Purcell (NIH) and the sequences are published in genebank (AAB67036, see Yanagi, M., Purcell, R. H., Emerson, S. U. and Bukh, J. Proc. Natl. Acad. Sci. U.S.A. 94(16),8738-8743 (1997); AF054247, see Yanagi, M., St Claire, M., Shapiro, M., Emerson, S. U., Purcell, R. H. and Bukh, J, Virology 244 (1), 161-172. (1998)). […]

Data set [2] has as its target T1, human liver cathepsin B (Homo sapiens, UniProt P07858).
T1 construct: from tissue; host or cells: liver
Kind of data set: Specificity assay, human liver cathepsin B. Format: biochemical. The method, then: (§1) The specificities of compounds of the present invention were determined against a variety of serine proteases: human leukocyte elastase, porcine pancreatic elastase and bovine pancreatic α-chymotrypsin and one cysteine protease: human liver cathepsin B. In all cases a 96-well plate format protocol using calorimetric […] (pNA) substrate specific for each enzyme was used as described previously (Patent WO 00/09543) with some modifications.
(§2) Each assay included a 1 h enzyme-inhibitor pre-incubation at RT followed by addition of substrate and hydrolysis to ˜30% conversion as measured on a Spectramax Pro microplate reader. Compound concentrations varied from 100 to 0.4 μM depending on their potency.
(§3) The final conditions and protocol for each assay was as reported previously (Patent WO 00/09543) with the inclusion of an additional assay: • 50 mM Tris-HCl pH 8, 0.5M Na2SO4, 50 mM NaCl, 0.1 mM EDTA, 3% DMSO, 0.01% Tween-20 with 133 μM succ-AAA-PNA and 20 nM Elastase
(§4) The percentage of inhibition was calculated using the formula: [1−((UVinh−UVblank)/(UVctl−UVblank))]×100

The target in data set [3] is T2, porcine pancreatic elastase (Sus scrofa, UniProt P00772).
T2 construct: from tissue; host or cells: pancreas (from the enzyme's name only)
Description: Specificity assay, porcine pancreatic elastase. Format: biochemical. To be noted: read-out: PPE. The method, then: as §1, §2, §3, §4

Data set [4] can be described thus: In vivo rat PK studies (systemic and liver exposure). Also noted: species or system male Sprague Dawley rats. Particulars: dosed orally or intravenously. The protocol:
All animal experimentation was conducted in accordance with USDA guidelines under the Animal Welfare Act. To assess the systemic and liver exposure, representative compounds were orally (gastric intubation) or intravenously (bolus or infusion) administered to male Sprague Dawley rats bearing indwelling jugular vein cannulae. At pre-determined times after dosing, serial blood samples were taken from the implanted cannulae. Plasma was separated from EDTA-treated blood by centrifugation and stored at −20° C. until analysis. The liver was removed from rats after carbon dioxide asphyxiation, rinsed with saline and blotted dry. For analysis, a 2 g portion of the outer part of one lobe was minced and homogenized with 4 ml of 80% acetonitrile/HBSS buffer. After centrifugation, the supernatant was kept at −20° C. until analysis. Quantitation of represenatative compounds in plasma and liver homogenate samples was performed by a specific LC/MS/MS method optimized for each compound.

Molecules are shown by their SMILES.

T2 sequence (P00772 27-266): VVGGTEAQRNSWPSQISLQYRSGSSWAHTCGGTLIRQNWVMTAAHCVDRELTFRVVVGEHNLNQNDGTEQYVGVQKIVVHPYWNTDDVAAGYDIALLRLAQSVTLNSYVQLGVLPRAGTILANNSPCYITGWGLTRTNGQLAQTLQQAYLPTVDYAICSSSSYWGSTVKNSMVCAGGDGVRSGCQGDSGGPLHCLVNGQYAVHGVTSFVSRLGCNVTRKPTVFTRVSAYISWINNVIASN
Chain of NS3/4A BMS strain (P27958 1027-1711, stated change not applied): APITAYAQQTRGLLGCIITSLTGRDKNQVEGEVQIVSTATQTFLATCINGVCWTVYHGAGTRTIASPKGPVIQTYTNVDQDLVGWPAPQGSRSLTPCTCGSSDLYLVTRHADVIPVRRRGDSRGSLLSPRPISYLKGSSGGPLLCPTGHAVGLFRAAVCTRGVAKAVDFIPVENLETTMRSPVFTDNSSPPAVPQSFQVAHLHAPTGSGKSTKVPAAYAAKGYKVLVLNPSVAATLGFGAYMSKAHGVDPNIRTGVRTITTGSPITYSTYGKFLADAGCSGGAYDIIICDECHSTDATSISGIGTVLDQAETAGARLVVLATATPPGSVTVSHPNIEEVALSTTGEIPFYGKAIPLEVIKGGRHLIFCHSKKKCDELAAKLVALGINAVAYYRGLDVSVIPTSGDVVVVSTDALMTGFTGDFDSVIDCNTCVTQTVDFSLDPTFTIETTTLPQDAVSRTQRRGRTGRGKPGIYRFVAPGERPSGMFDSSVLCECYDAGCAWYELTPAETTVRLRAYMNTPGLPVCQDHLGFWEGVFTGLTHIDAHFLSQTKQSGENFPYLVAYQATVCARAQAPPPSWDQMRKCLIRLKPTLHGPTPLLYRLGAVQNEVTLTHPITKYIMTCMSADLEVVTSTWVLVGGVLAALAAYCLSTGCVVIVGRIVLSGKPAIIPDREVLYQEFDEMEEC
Chain of NS3/4A BMS strain (P27958 1027-1711, stated change not applied): as above

`C=CC1C[C@]1(NC(=O)[C@@H]1C[C@@H](Oc2cc(-c3ccccc3)nc3cc(OC)ccc23)CN1C(=O)C(NC(=O)OC(C)(C)C)C(C)(C)C)C(=O)NS(=O)(=O)c1ccc(NC(C)=O)cc1` (stereo partly shown) [Compound 58]: the IC50 in data set [1] is 0.017 µM; in data set [2], greater than 100 µM; in data set [3], greater than 100 µM. In addition, in data set [4], the viral target exposure entry is “viral target exposure was achieved”.
